Here are results for 1 compound from paper PMC11990103, “Anticancer Activity and Safety Profile of Novel 1-(4-Fluorophenoxyacetyl)-4-substituted Thio/Semicarbazide Derivatives” (Molecules, 2025).

Holding throughout (format): cell-based, human
Assay [1] relates to BJ fibroblasts. The assay can be described thus: MTT cytotoxicity assay, normal cells. The conditions noted are these: 48 h treatment, read-out: IC50 BJ (fibroblast). How it is done: (§1) These cancer cell lines comprised prostate cancer (PC-3, DU-145, LNCaP), melanoma (SK-MEL28, A375, G-361), breast cancer (MCF-7, MDA-MB-231), and lung cancer (NCI-H1563). The MTT assay was carried out across a wide range of concentrations for 48 h.
(§2) The research was conducted on one primary cell line: BJ (fibroblast) and four types of cancerous ones: three prostate cancer cell lines (PC-3, DU-145, LNCaP); 3 Melanoma cell lines (MEL-28, A375, G-361); 2 breast cancer cell lines (MCF-7, MDA-MB-23) and one lung cancer cell line (NCI-H1563). All cell lines were obtained from the American Type Culture Collection (ATCC, Manassas, VA, USA) and were grown in media (Corning, New York, NY, USA) according to ATCC guidelines. The culture media was enriched with 10% heat-inactivated fetal bovine serum (Life Technologies, Carlsbad, CA, USA) and antibiotics: penicillin (100 units) and streptomycin (100 μg/mL) from Sigma-Aldrich (St. Louis, MO, USA). The cells were incubated at 37 °C with 5% CO2 in air.
(§3) The cytotoxic analysis of thiosemicarbazides (TSC) (AB1–AB6) and semicarbazides (SC) (AB7–AB12) was conducted in various concentrations. […] The cells were treated with compounds or DMSO as a vehicle in control cultures for 48h. IC50 values were determined using the AAT Bioquest IC50 calculator (AAT Bioquest, Inc., Pleasanton, CA, USA, Quest Graph™ EC50 Calculator. https://www.aatbio.com/tools/ec50-calculator) (accessed on 7 October 2024).
(§4) The cytotoxic activity of the thiosemicarbazides and semicarbazides was measured using the MTT colorimetric assay (MTT Cell Proliferation Assay Kit—Invitrogen, Waltham, MA, USA). The cells were seeded in the 96-well plates at a density of 1.5 × 10^5 cells/mL. After reaching 70–80% of confluence, the tested compounds in a wide range of concentrations were added. Plates were incubated for 48 h at 37 °C in 5% CO2 air. Then, […] tetrazolium salt (3-(4,5-dimethylthiazol-2-yl)-2,5-diphenyltetrazolium bromide)—MTT reagent (0.5 mg/mL) dissolved in PBS was added to each well for 4 h. The MTT solution was then removed from above the water-insoluble purple formazan crystals, which were then dissolved in DMSO (dimethyl sulfoxide, […]; POCH, Gliwice, Poland). The absorbance value of obtained solutions was measured using a PowerWave ™ microplate spectrophotometer (Bio-Tek Instruments, Winooski, VT, USA) at a wavelength of 570 nm. Each cytotoxicity assay was repeated three times in triplicates.
In general terms: Tetrazolium dyes change colour on reduction, which living cells bring about.

Assay [2] deals with A375 melanoma cell line. The assay can be described thus: MTT cytotoxicity assay. As to conditions: 48 h treatment. How it is done:
as §1, §2, §3, §4

Assay [3] concerns DU-145 prostate cancer cell line. Description: MTT cytotoxicity assay. As to conditions: 48 h treatment. Here is the method: as §1, §2, §3, §4
The test system of assay [4] is G-361 melanoma cell line. The assay can be described thus: MTT cytotoxicity assay. How it is done: as §1, §2, §3, §4
For assay [5], the system named is LNCaP prostate cancer cell line. The assay can be described thus: MTT cytotoxicity assay. How it is done:
as §1, §2, §3, §4

Assay [6] concerns MCF-7 breast cancer cell line. Description: MTT cytotoxicity assay. As to conditions: 48 h treatment. Here is the method: as §1, §2, §3, §4
For assay [7], the system named is MDA-MB-231 breast cancer cell line. Description: MTT cytotoxicity assay. The conditions noted are these: 48 h treatment. How it is done: as §1, §2, §3, §4
The subject of assay [8] is NCI-H1563 lung cancer cell line. The assay can be described thus: MTT cytotoxicity assay. As to conditions: 48 h treatment. Here is the method:
as §1, §2, §3, §4

Assay [9] has as its system PC-3 prostate cancer cell line. The assay can be described thus: MTT cytotoxicity assay. The conditions noted are these: 48 h treatment. How it is done:
as §1, §2, §3, §4

Assay [10] concerns SK-MEL28 melanoma cell line. The assay can be described thus: MTT cytotoxicity assay. The conditions noted are these: 48 h treatment. How it is done:
as §1, §2, §3, §4

For assay [11], the system named is G-361 melanoma cells. Description: Cell cycle analysis by image cytometry (NucleoCounter NC-3000). As to conditions: G-361, 48 h, AB2 at concentration corresponding to IC50. Here is the method: (§5) To further evaluate the anticancer activity of thiosemicarbazide derivative AB2 in G-361 and LNCaP cell lines, cell cycle analysis by image cytometry and detection of apoptosis using annexin V and propidium iodide was performed. Analyses of the action of AB2 on the distribution of cells in different phases of the cell cycle indicated a significant increase in the population of cells in the sub-G1 phase compared to the control cultures, in both tested prostate and melanoma cells. This population increased from 7% and 5% in control cells to 26% and 27% after exposure to AB2 in LNCaP and G-361 cells, respectively (Figure 8A). The increase in the cell population in the sub-G1 phase indicates the presence of apoptosis or necrosis in the investigated cells and not a significant inhibition of cell proliferation, i.e., a cytostatic effect.
(§6) Cell cycle analysis was assessed with the NucleoCounter NC-3000 (ChemoMetec, Allerod, Denmark) following the 2-Step Cell Cycle Assay protocol recommended by the manufacturer. The research was performed after 48 h incubation of prostate cancer cells (LNCaP) and melanoma cells (G-361) with AB2 compound in a concentration corresponding to IC50 value. Analysis was performed in line with the previously described methodology.

For assay [12], the system named is LNCaP prostate cancer cells. The description is as above. As to conditions: 48 h, AB2 at concentration corresponding to IC50. How it is done: as §5, §6
The subject of assay [13] is G-361 melanoma cells. The assay can be described thus: Apoptosis detection, annexin V and propidium iodide. As to conditions: G-361, 48 h, concentration approximate to IC50. Here is the method:
as §5
(§7) In prostate cancer cells, the percentage of early apoptotic cells substantially elevated after AB2 treatment compared with the control group, indicating the initial activation of the apoptotic pathway. […] The percentage of cells in the early phase of apoptosis is approximately 36% and 28% in LNCaP and G-361 cells, respectively (Figure 8B). At the same time, the population of cells in late apoptosis increased in both cell lines, implying a progression of the apoptotic process after AB2 exposure. […]

Assay [14] deals with LNCaP prostate cancer cells. The assay is described as above. The conditions noted are these: 48 h, concentration approximate to IC50. Here is the method:
as §5, §7

A word on the IC50: it is the concentration that inhibits the measured activity by half.

Molecules are shown by their SMILES.

On to `O=C(COc1ccc(F)cc1)NNC(=S)Nc1ccccc1Cl` [AB2], for which the IC50 in assay [1] is 453 µM; in assay [2], 429 µM; in assay [3], above 500 µM; in assay [4] (MTT, 48 h treatment) it was 223 µM; in [5] (MTT, 48 h treatment) it was 108 µM; in assay [6], above 500 µM. Also, the half-inhibitory concentration (IC50) in [7] is above 500 µM; in assay [8], above 500 µM; in assay [9], above 500 µM; in assay [10] it was 470 µM. Besides, the “selectivity index (SI), G-361” value in [4] (IC50 normal cells (BJ) divided by IC50 G-361) is given as 2.04. The “selectivity index (SI), LNCaP” value in assay [5] (IC50 normal cells (BJ) divided by IC50 LNCaP) amounted to 4.19. Further, the “cells in sub-G1 phase (M1)” value in assay [11] is 27%; in assay [12], 26%. For the same compound, the “early apoptotic cells (Q1lr)” value in assay [13] is on record as around 28%. Further, the “late apoptotic cells (Q1ur)” value in assay [14] worked out at 37%.
